Measured values as given in patent publication US20030091589A1, “Methods and compositions for control of coccidiosis” (priority 2001, published 2003).
Marks after values point to notes of the source that are not given here.

Tests used:
Eimeria spp. [1] = experiment: 42-day trials, growth of broiler chicks reared on Eimeria-infected recycled litter (Example 6); type: in vivo, Cornish Rock male broiler chicks; conditions: AVATEC 90.7 g/ton, Bacitracin Zn 50 g/t, BIO-MOS 0.5 kg/tonne
Method: Three 42-day trials were conducted to evaluate the effects of AVATEC (lasalocid, Alpharma, Fort Lee, N.J.), an anticoccidial ionophore (90.7 g/ton); Bacitracin Zn, (50 g/t), and BIO-MOS® (0.5 kg/tonne) on the growth of broiler chicks reared on recycled litter. Sixty (day-old) Cornish Rock male broiler chicks were put into each of four treatment groups (replicated three times) consisting of the following: 1) Control (untreated birds); 2) BIO-MOS® treated, 3) AVATEC treated, and 4) Bacitracin ZN treated. Pine wood shavings on which broilers infected with E. tenella, E. maxima, and E. acervulina had been grown were used as recycled litter for the trials. Pens containing this recycled litter were assigned to the four treatment groups prior to commencement of the trial, and day old chicks were introduced for each of the three subsequent trials with the same recycled litter.
Diets consisted of mainly corn-soy supplemented with necessary vitamins and minerals to satisfy 1994 National Research Council requirements. Weekly body weights were measured. […] Mean body weight averages of chicks in all treatments decreased with each cycle of litter re-use due to infection.

E. acervulina = experiment: 28-day trial, broiler chicks challenged with E. acervulina (Example 3); type: in vivo, Cornish Rock male broiler chicks
Method: A 28-day trial with 360 Cornish Rock male broiler chicks was conducted to investigate the effects of two medicated feeds on the suppression of detrimental effects of E. acervulina.
Day-old chicks were fed a standard corn soya diet containing Salinomycin (6 mg/kg) or BIO-MOS® (1 kg/tonne). The four experimental groups were: 1) negative control, unmedicated, unchallenged; 2) Salinomycin-treated, challenged, 3) BIO-MOS®-treated, challenged and 4)BIO-MOS® treated, unchallenged. Birds were randomly assigned to three replicate pens in each treatment group. At 14 days of age, chicks were infected orally by gavage with E. acervulina (500,000 oocysts/bird). The response variables measured included weekly body weight gain and cecal lesion scores. Data were subjected to ANOVA using the General Linear Model procedure (SAS Institute, Cary, N.C.) as described in Example 1.

Eimeria spp. [2] = experiment: 20-day battery trial, chicks challenged with sporulated Eimeria species (Example 4); type: in vivo, broiler chicks (Cobb)
Method: A 20-day battery trial was conducted to determine the anticoccidial activity of a yeast cell composition in broiler chicks (Cobb) challenged with sporulated Eimeria species. One hundred sixty chicks (day old) were housed in battery cages (10 chicks per cage, 459 sq. cm/bird). There were four replicated cages per treatment. A standard corn soya diet was provided with water ad libitum. Treatment groups were the following: (1) Negative control (non-medicated, unchallenged); 2) positive control (non-medicated, challenged; 3) BIO-MOS®, 1 kg/tonne (challenged); and 4) Salinomycin, 60 g/tonne (challenged).
The challenge inoculum was provided at 14 days of age and contained 50,000 E. acervulina, 5,000 E. maxima or 40,000 E. tenella oocysts, respectively, administered by oral gavage. Body weights and feed consumption were measured at 9, 14 and 20 days of age. Six days post-infection all birds were sacrificed and lesion scored using the method of Johnson and Reid (1970) supra. Lesion scores were evaluated in the upper (E. acervulina), middle (E. maxima), and cecal (E. tenella) regions of the intestine.

Eimeria spp. [3] = experiment: 20-day battery trial, chicks challenged with sporulated Eimeria species (Example 5); type: in vivo, broiler chicks (Cobb)
Method: A 20-day battery trial was conducted to determine the anticoccidial activity of a BIO-MOS® in broiler chicks (Cobb) challenged with sporulated Eimeria species. One hundred sixty chicks (day old) were housed in battery cages (10 chicks per cage, 459 sq.cm/bird). There were 4 replicated cages per treatment. A standard soya corn diet was provided with water ad libitum. Treatment groups were the following: 1) Negative control (non-medicated, unchallenged); 2) Positive control (non-medicated and challenged; 3) BIO-MOS®, 1 kg/tonne (challenged); and 4) Salinomycin, 60 g/tonne (challenged).
The challenge inoculum was provided at 14 days of age and contained respectively, 50,000 E. acervulina, 5,000 E. maxima or 40,000 E. tenella oocysts administered by oral gavage. Body weights and feed consumption were measured at 0, 14 and 20 days of age.
Six days post infection all birds were sacrificed and lesion scored, using the method of Johnson and Reid supra. Lesion scores were evaluated in the upper (E. acervulina), middle (E. maxima), and cecal (E. tenella) regions of the intestine.

E. tenella = experiment: 28-day trial, broiler chicks challenged with E. tenella (Example 1); type: in vivo, Cornish Rock male broiler chicks
Method: A 28-day trial with 360 Cornish Rock male broiler chicks was conducted to investigate the effects of two medicated feeds on the suppression of detrimental effects of E. tenella (See Tables I & II).
Day-old chicks were fed standard corn soya diets containing Monensin ([…]) or a yeast cell wall/mannanoligosaccharide-containing composition (BIO-MOS®, Alltech, Inc., Nicholasville, Ky.) (1 kg/tonne). The experimental groups included: 1) negative control (unmedicated, unchallenged); 2) positive control (untreated, challenged); 3) Monensin-treated, challenged and 4) BIO-MOS®-treated, challenged. Birds were randomly assigned to three replicate pens in each treatment group. At 14 days of age, chicks were infected orally by gavage with E. tenella (50,000 oocysts/bird). The response variables measured included weekly body weight gain and cecal lesion scores as described (Johnson and Reid. 1970 “Anticoccidial Drugs: Lesion Scoring Technique in Battery and Floor Pen Experiments with Chickens.” Exp. Parasitol. 28:30-36). Treatment differences were evaluated by using the LSD procedure with the General Linear Models Procedure (SAS Institute, 1985, Cary, N.C.) using pens as the experimental units. The model statement included only treatment effects. When significance differences (P<0.05) were observed, the least significant differences (LSD) procedures was applied to test for the differences among treatments.

E. maxima = experiment: 28-day trial, broiler chicks challenged with E. maxima (Example 2); type: in vivo, Cornish Rock male broiler chicks
Method: A 28-day trial with 360 Cornish Rock male broiler chicks was conducted to investigate the effects of two medicated feeds on the suppression of E. maxima infection. Thirty day-old chicks per treatment group were housed in battery cages and fed a standard soya corn diet containing Monensin ([…]) or a commercially available yeast cell-derived composition containing yeast cell wall material and mannanoligosaccharide (BIO-MOS®) (1 kg/tonne). The four experimental groups included: 1) negative control (unmedicated, unchallenged); 2) positive control (unmedicated, challenged); 3) Monensin treated, challenged, and 4) BIO-MOS® treated, challenged. Birds were assigned to treatments and replicate pens as described in Example 1. At 14 days of age, chicks were infected orally by gavage with E. maxima (50,000 oocysts/bird). The response variables measured included weekly body weight gain and cecal lesion scores. Such measurements were subjected to analysis of variance as described in Example 1.

[4] = Eimeria spp. infected, BIO-MOS 1 kg/t, Salinomycin 60 g/t
[5] = post-challenge period, BIO-MOS 1 kg/t, Salinomycin 60 g/t
[6] = post-challenge weight gain versus unchallenged control
[7] = pre-challenge period, BIO-MOS 1 kg/t, Salinomycin 60 g/t
[8] = whole trial, BIO-MOS 1 kg/t, Salinomycin 60 g/t

## CC[C@@H](C(=O)[C@@H](C)[C@@H](O)[C@H](C)CCc1ccc(C)c(O)c1C(=O)O)[C@H]1O[C@](CC)([C@H]2CC[C@](O)(CC)[C@H](C)O2)C[C@@H]1C [AVATEC, lasalocid]
Eimeria spp. [1]; 42-day trial 1 on recycled litter
  Body Weight, Trial 1: 2271^a Grams
Eimeria spp. [1]; 42-day trial 2 on same recycled litter
  Body Weight, Trial 2: 1863^b Grams
Eimeria spp. [1]; 42-day trial 3 on same recycled litter
  Body Weight, Trial 3: 1760^ab Grams

## CC[C@@H](C(=O)[C@@H](C)[C@@H](O)[C@H](C)[C@@H]1O[C@@H]([C@@H](CC)C(=O)O)CC[C@@H]1C)[C@H]1O[C@]2(C=C[C@@H](O)[C@]3(CC[C@@](C)([C@H]4CC[C@](O)(CC)[C@H](C)O4)O3)O2)[C@H](C)C[C@@H]1C [Salinomycin]
E. acervulina; Challenge: Yes (E. acervulina)
  Body Weight Gain Post-Infection Week 3: 350^a grams
  Body Weight Gain Post-Infection Week 4: 607^ab grams
  Body Weight Pre-Infection Week 2: 236^a grams
E. acervulina; E. acervulina challenge, versus positive control
  reduction of severity of cecal lesions (cecal lesion scores): 57%
E. acervulina; chicks challenged with E. acervulina 500,000 oocysts/bird at 14 days, Salinomycin 6 mg/kg or BIO-MOS 1 kg/tonne in feed
  Cecal Lesion Scores: 0.92^bc
Eimeria spp. [2]; Eimeria spp. challenge
  lesion scores compared to control groups in the upper and mid intestine regions: significantly reduced (P<0.05)
Eimeria spp. [2]; [4]
  Feed Conv.: 1.511^b
Eimeria spp. [2]; cecal region (E. tenella), six days post-infection, BioMos 1 kg/t, Salinomycin 60 g/t
  Average Cecal Lesion Scores, Ceca: 0.6^c
Eimeria spp. [2]; middle intestine (E. maxima), six days post-infection, BioMos 1 kg/t, Salinomycin 60 g/t
  Average Cecal Lesion Scores, Mid: 0.8^c
Eimeria spp. [2]; [5]
  Avg. Live Wt. Gain Day 14-20: 0.314^a kg
Eimeria spp. [2]; [6]
  % Wt. Gain Reduction: −0.41%
Eimeria spp. [2]; [7]
  Avg. Live Wt. Gain Day 0-14: 0.634^a kg
Eimeria spp. [2]; total of regions, six days post-infection, BioMos 1 kg/t, Salinomycin 60 g/t
  Average Cecal Lesion Scores, Total: 2.7^c
Eimeria spp. [2]; upper intestine (E. acervulina), six days post-infection, BioMos 1 kg/t, Salinomycin 60 g/t
  Average Cecal Lesion Scores, Upper: 1.3^c
Eimeria spp. [2]; [8]
  Avg. Live Wt. Gain Day 0-20: 0.634^a kg
Eimeria spp. [3]; Eimeria spp. challenge
  lesion scores versus the positive control in all regions of the gut: significantly lower lesion scores
Eimeria spp. [3]; [4]
  Feed Conv.: 1.675^a
Eimeria spp. [3]; cecal region (E. tenella), six days post infection, BioMos 1 kg/t, Salinomycin 60 g/t
  Average Cecal Lesion Scores, Ceca: 1.2^b
Eimeria spp. [3]; middle intestine (E. maxima), six days post infection, BioMos 1 kg/t, Salinomycin 60 g/t
  Average Cecal Lesion Scores, Mid: 0.7^b
Eimeria spp. [3]; [5]
  Avg. Live Wt. Gain Day 14-20: 0.243^ab kg
Eimeria spp. [3]; [6]
  % Wt. Gain Reduction: 8.90%
Eimeria spp. [3]; [7]
  Avg. Live Wt. Gain Day 0-14: 0.262^a kg
Eimeria spp. [3]; total of regions, six days post infection, BioMos 1 kg/t, Salinomycin 60 g/t
  Average Cecal Lesion Scores, Total: 2.7^ab
Eimeria spp. [3]; upper intestine (E. acervulina), six days post infection, BioMos 1 kg/t, Salinomycin 60 g/t
  Average Cecal Lesion Scores, Upper: 0.8^b
Eimeria spp. [3]; [8]
  Avg. Live Wt. Gain Day 0-20: 0.504^ab kg

## CC[C@@]1([C@@H]2O[C@@H]([C@H]3O[C@@](O)(CO)[C@H](C)C[C@@H]3C)C[C@@H]2C)CC[C@H]([C@]2(C)CC[C@]3(C[C@H](O)[C@@H](C)[C@@H]([C@@H](C)[C@@H](OC)[C@H](C)C(=O)O)O3)O2)O1 [Monensin]
E. tenella; E. tenella infected, weeks 2-4 after challenge, mean of 3 replications
  Average Weight Gain, Mean: 544 Grams
E. tenella; E. tenella infected, weeks 2-4 after challenge, replicate pen 1
  Average Weight Gain, Replication 1: 498 Grams
E. tenella; E. tenella infected, weeks 2-4 after challenge, replicate pen 2
  Average Weight Gain, Replication 2: 611 Grams
E. tenella; E. tenella infected, weeks 2-4 after challenge, replicate pen 3
  Average Weight Gain, Replication 3: 523 Grams
E. tenella; chicks infected with E. tenella 50,000 oocysts/bird at 14 days, Monensin 60 g/kg or BIO-MOS 1 kg/tonne in feed
  Cecal Lesion Scores: 1.50^b
E. tenella; standard Monensin treatment
  improvements in weight gain relative to E. tenella-challenged control: not seen
E. tenella; versus untreated challenged control
  severity of the E. tenella infections as measured by cecal lesion scores: significantly (P<0.05) reduced
E. maxima; E. maxima infected, 2-4 weeks after challenge, mean of 3 replications
  Average Weight Gain, Mean: 536
E. maxima; E. maxima infected, 2-4 weeks after challenge, replicate pen 1
  Average Weight Gain, Replication 1: 598
E. maxima; E. maxima infected, 2-4 weeks after challenge, replicate pen 2
  Average Weight Gain, Replication 2: 412
E. maxima; E. maxima infected, 2-4 weeks after challenge, replicate pen 3
  Average Weight Gain, Replication 3: 599
E. maxima; E. maxima infection, versus positive control
  reduction of average cecal lesion scores: 21%
E. maxima; chicks challenged with E. maxima 50,000 oocysts/bird at 14 days, Monensin 60 g/kg or BIO-MOS 1 kg/tonne in feed
  Cecal Lesion Scores: 0.93^b
